From PubChem BioAssay AID330 (DTP/NCI, 2004)
Several values for one entry are separate records, joined by “and”; a condition that tells them apart may be missing. Equal entries are not always repeated. Inconclusive results and toxic doses are left out.

Test system: P388 leukemia ip, CD2F1 mice, survival T/C
Assay: NCI In Vivo Anticancer Drug Screen. Data for tumor model P388 Leukemia (intraperitoneal) in CD2F1 (CDF1) mice
Details: endpoint: median survival time, higher = longer survival
Summary of the method: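 Mice carrying the transplanted tumor received test compound or vehicle. Survival was recorded in each group, and the value is the treated-group measurement divided by that of the vehicle-treated control group.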

[1] = dose: 100.0 mg/kg/injection, schedule: Q01DX009 (ip), vehicle: saline with Tween-80
[2] = dose: 200.0 mg/kg/injection, schedule: Q01DX009 (ip), vehicle: saline with Tween-80
[3] = dose: 50.0 mg/kg/injection, schedule: Q01DX009 (ip), vehicle: Klucel (hydroxypropylcellulose) (HPC)
[4] = dose: 100.0 mg/kg/injection, schedule: Q01DX009 (ip), vehicle: Klucel (hydroxypropylcellulose) (HPC)
[5] = dose: 200.0 mg/kg/injection, schedule: Q01DX009 (ip), vehicle: Klucel (hydroxypropylcellulose) (HPC)
[6] = dose: 50.0 mg/kg/injection, schedule: Q01DX005 (ip), vehicle: Klucel (hydroxypropylcellulose) (HPC)
[7] = dose: 100.0 mg/kg/injection, schedule: Q01DX005 (ip), vehicle: Klucel (hydroxypropylcellulose) (HPC)
[8] = dose: 60.0 mg/kg/injection, schedule: Q01DX005 (ip), vehicle: saline with Tween-80
[9] = dose: 120.0 mg/kg/injection, schedule: Q01DX005 (ip), vehicle: saline with Tween-80
[10] = dose: 240.0 mg/kg/injection, schedule: Q01DX005 (ip), vehicle: saline with Tween-80
[11] = dose: 50.0 mg/kg/injection, schedule: Q01DX005 (ip), vehicle: saline with Tween-80
[12] = dose: 100.0 mg/kg/injection, schedule: Q01DX005 (ip), vehicle: saline with Tween-80
[13] = dose: 200.0 mg/kg/injection, schedule: Q01DX005 (ip), vehicle: saline with Tween-80
[14] = dose: 200.0 mg/kg/injection, schedule: Q01DX005 (ip), vehicle: Klucel (hydroxypropylcellulose) (HPC)
[15] = dose: 60.0 mg/kg/injection, schedule: Q01DX005 (ip), vehicle: saline
[16] = dose: 120.0 mg/kg/injection, schedule: Q01DX005 (ip), vehicle: saline

Compound: CC1C2=C(C(=O)N1Cc1ccccc1)C(C1OC(COC(=O)c3ccccc3)C(OC(=O)c3ccccc3)C1OC(=O)c1ccccc1)C(=O)N(C)C2=O (stereo not given)
- T/C (dose: 39.0 mg/kg/injection, schedule: Q01DX009 (ip), vehicle: Klucel (hydroxypropylcellulose) (HPC)): 97 % of control
- T/C (dose: 78.0 mg/kg/injection, schedule: Q01DX009 (ip), vehicle: Klucel (hydroxypropylcellulose) (HPC)): 99 % of control
- T/C (dose: 156.0 mg/kg/injection, schedule: Q01DX009 (ip), vehicle: Klucel (hydroxypropylcellulose) (HPC)): 95 % of control

Compound: Nc1ccccc1C(=O)NCCCCCCN1CCN(c2cccc(Cl)c2)CC1
- T/C (dose: 50.0 mg/kg/injection, schedule: Q01DX009 (ip), vehicle: saline with Tween-80): 92 % of control
- T/C [1]: 90 % of control
- T/C [2]: 96 % of control

Compound: COC1CCC(/C=C(\C#N)C2CCC(OC)CC2)CC1 (stereo not given)
- T/C (dose: 25.0 mg/kg/injection, schedule: Q01DX009 (ip), vehicle: Klucel (hydroxypropylcellulose) (HPC)): 107 % of control
- T/C [3]: 100 % of control
- T/C [4]: 96 % of control
- T/C [5]: 92 % of control

Compound: COc1cc(C(N)CCc2ccc3c(c2)OCO3)cc(OC)c1OC (stereo not given)
- T/C [6]: 110 % of control
- T/C [7]: 98 % of control

Compound: Nc1n[nH]c(=S)n1-c1ccc(Cl)cc1
- T/C [1]: 115 % of control
- T/C [2]: 120 % of control
- T/C (dose: 400.0 mg/kg/injection, schedule: Q01DX009 (ip), vehicle: saline with Tween-80): 120 % of control

Compound: O/N=C(/Cc1nc2cc(Cl)c(Cl)cc2nc1C/C(=N/O)c1ccncc1)c1ccncc1
- T/C [8]: 102 % of control
- T/C [9]: 100 % of control
- T/C [10]: 102 % of control

Compound: Cc1ccc2ccccc2[n+]1CC(=O)c1ccc2c(c1)OCO2
- T/C [11]: 110 % of control
- T/C [12]: 105 % of control
- T/C [13]: 103 % of control

Compound: COc1ccc2ncc(COC(=O)NCCCl)c(COC(=O)NCCCl)c2c1
- T/C (dose: 25.0 mg/kg/injection, schedule: Q01DX005 (ip), vehicle: Klucel (hydroxypropylcellulose) (HPC)): 92 % of control
- T/C [6]: 86 % of control
- T/C [7]: 88 % of control
- T/C [14]: 86 % of control

Compound: CCO/C=C(\C#N)S(=O)(=O)/C(C#N)=C/OCC
- T/C (dose: 100.0 mg/kg/injection, schedule: Q04DX002 (ip), vehicle: saline): 108 % of control
- T/C (dose: 200.0 mg/kg/injection, schedule: Q04DX002 (ip), vehicle: saline): 101 % of control

Compound: CC(C)([CH2][Sn]([Cl])([CH2]C(C)(C)c1ccccc1)[O][Sn]([Cl])([CH2]C(C)(C)c1ccccc1)[CH2]C(C)(C)c1ccccc1)c1ccccc1
- T/C (dose: 1.56 mg/kg/injection, schedule: Q01DX005 (ip), vehicle: Klucel (hydroxypropylcellulose) (HPC)): 104 % of control and 97 % of control
- T/C (dose: 3.12 mg/kg/injection, schedule: Q01DX005 (ip), vehicle: Klucel (hydroxypropylcellulose) (HPC)): 99 % of control and 100 % of control and 109 % of control
- T/C (dose: 6.25 mg/kg/injection, schedule: Q01DX005 (ip), vehicle: Klucel (hydroxypropylcellulose) (HPC)): 100 % of control and 119 % of control and 96 % of control
- T/C (dose: 12.5 mg/kg/injection, schedule: Q01DX005 (ip), vehicle: Klucel (hydroxypropylcellulose) (HPC)): 100 % of control and 106 % of control

Compound: CC(C)CC(=O)CC(=O)CCC(=O)Nc1ccc(Cl)cc1Cl
- T/C [8]: 100 % of control
- T/C [9]: 108 % of control
- T/C [10]: 100 % of control

Compound: N=[N+]=CC(=O)OCC(N)C(=O)O (stereo not given)
- T/C (dose: 2.3 mg/kg/injection, schedule: Q01DX009 (ip), vehicle: water): 118 % of control
- T/C (dose: 6.25 mg/kg/injection, schedule: Q04DX003 (ip), vehicle: water): 120 % of control
- T/C (dose: 18.8 mg/kg/injection, schedule: Q01DX009 (ip), vehicle: water): 86 % of control and 91 % of control
- T/C (dose: 20.0 mg/kg/injection, schedule: Q01DX009 (ip), vehicle: saline): 169 % of control
- T/C (dose: 25.0 mg/kg/injection, schedule: Q01DX009 (ip), vehicle: saline): 153 % of control
- T/C (dose: 25.0 mg/kg/injection, schedule: Q04DX003 (ip), vehicle: water): 157 % of control
- T/C (dose: 40.0 mg/kg/injection, schedule: Q01DX009 (ip), vehicle: saline): 107 % of control and 121 % of control
- T/C (dose: 41.7 mg/kg/injection, schedule: Q01DX009 (ip), vehicle: saline): 166 % of control
- T/C (dose: 50.0 mg/kg/injection, schedule: Q04DX003 (ip), vehicle: water): 111 % of control

Compound: CCCN1CCc2cc3c(cc2C1)OCO3
- T/C [15]: 93 % of control
- T/C [16]: 91 % of control

Compound: CCCCCCCCCCCCCCCC(=O)OCC(=O)OC
- T/C [3]: 101 % of control
- T/C [4]: 93 % of control
- T/C [5]: 93 % of control

Compound: O=P1(N2CCOCC2)OC(c2ccccc2)=CCN1c1ccc(Cl)cc1 (stereo not given)
- T/C [6]: 104 % of control
- T/C [7]: 100 % of control
- T/C [14]: 95 % of control

Compound: O=C1Nc2ccccc2/C1=N/N=C/c1ccccc1Cl
- T/C [3]: 99 % of control and 88 % of control
- T/C [4]: 86 % of control and 97 % of control
- T/C [5]: 96 % of control

Compound: CC(C)Cn1cnc2c(=S)nc(N)[nH]c21
- T/C (dose: 8.0 mg/kg/injection, schedule: Q01DX009 (ip), vehicle: saline with Tween-80): 95 % of control
- T/C (dose: 16.0 mg/kg/injection, schedule: Q01DX009 (ip), vehicle: saline with Tween-80): 100 % of control
- T/C (dose: 32.0 mg/kg/injection, schedule: Q01DX009 (ip), vehicle: saline with Tween-80): 100 % of control
- T/C (dose: 64.0 mg/kg/injection, schedule: Q01DX009 (ip), vehicle: saline with Tween-80): 90 % of control
- T/C (dose: 100.0 mg/kg/injection, schedule: Q04DX003 (ip), vehicle: saline with Tween-80): 109 % of control
- T/C (dose: 264.0 mg/kg/injection, schedule: Q04DX003 (ip), vehicle: saline with Tween-80): 100 % of control
- T/C (dose: 400.0 mg/kg/injection, schedule: Q04DX003 (ip), vehicle: saline with Tween-80): 112 % of control
- T/C (dose: 600.0 mg/kg/injection, schedule: Q04DX003 (ip), vehicle: saline with Tween-80): 116 % of control

Compound: C[n+]1c(-c2ccccc2)c2cc(N)ccc2c2ccc(N)cc21
- T/C (dose: 1.56 mg/kg/injection, schedule: Q04DX003 (ip), vehicle: saline with Tween-80): 106 % of control
- T/C (dose: 3.13 mg/kg/injection, schedule: Q04DX003 (ip), vehicle: saline with Tween-80): 107 % of control
- T/C (dose: 6.25 mg/kg/injection, schedule: Q04DX003 (ip), vehicle: saline with Tween-80): 118 % of control
- T/C (dose: 25.0 mg/kg/injection, schedule: Q04DX003 (ip), vehicle: saline with Tween-80): 124 % of control

Compound: O=C1OC2CCCC1O2 (stereo not given)
- T/C [11]: 106 % of control
- T/C [12]: 100 % of control
- T/C [13]: 98 % of control

Compound: N#CCN(CNC(=O)c1ccccc1)N=O
- T/C (dose: 100.0 mg/kg/injection, schedule: Q04DX002 (ip), vehicle: saline with Tween-80): 101 % of control
- T/C (dose: 200.0 mg/kg/injection, schedule: Q04DX002 (ip), vehicle: saline with Tween-80): 105 % of control

Compound: COC(C(=O)O)(c1ccccc1)C(F)(F)F (stereo not given)
- T/C [15]: 100 % of control
- T/C [16]: 109 % of control

Compound: O=S(=O)(Nc1ccc(Br)c2ccccc12)c1ccccc1
- T/C (dose: 18.75 mg/kg/injection, schedule: Q01DX001 (ip), vehicle: saline with Tween-80): 95 % of control
- T/C (dose: 37.5 mg/kg/injection, schedule: Q01DX001 (ip), vehicle: saline with Tween-80): 95 % of control
- T/C (dose: 75.0 mg/kg/injection, schedule: Q01DX001 (ip), vehicle: saline with Tween-80): 95 % of control

Compound: C=Cc1ccc(Oc2ccccc2)cc1
- T/C (dose: 25.0 mg/kg/injection, schedule: Q04DX003 (ip), vehicle: saline): 100 % of control
- T/C (dose: 50.0 mg/kg/injection, schedule: Q04DX003 (ip), vehicle: saline): 95 % of control
- T/C (dose: 100.0 mg/kg/injection, schedule: Q04DX003 (ip), vehicle: saline): 109 % of control

Compound: CC1(C)O[Se](=O)OC1(C)C
- T/C (dose: 1.56 mg/kg/injection, schedule: Q04DX003 (ip), vehicle: saline): 103 % of control
- T/C (dose: 3.12 mg/kg/injection, schedule: Q04DX003 (ip), vehicle: saline): 98 % of control
- T/C (dose: 6.25 mg/kg/injection, schedule: Q04DX003 (ip), vehicle: saline): 90 % of control

Compound: COc1cc(CC2c3cc(OC)c(OC)cc3CCN2C)c(Oc2cc3c(cc2OC)-c2c(OC)c(OC)c(OC)c4c2C(C3)N(C)CC4)cc1OC (stereo not given)
- T/C (dose: 37.5 mg/kg/injection, schedule: Q01DX009 (ip), vehicle: Klucel (hydroxypropylcellulose) (HPC)): 102 % of control
- T/C (dose: 75.0 mg/kg/injection, schedule: Q01DX009 (ip), vehicle: Klucel (hydroxypropylcellulose) (HPC)): 88 % of control
- T/C (dose: 150.0 mg/kg/injection, schedule: Q01DX009 (ip), vehicle: Klucel (hydroxypropylcellulose) (HPC)): 94 % of control
